Test results as given in patent US20090317293A1, “METHOD AND DEVICE FOR ELIMINATING MICROBES WITHIN INDUSTRIAL PIPELINES” (BioCorrosion Solutions Inc., priority 2008, published 2009).

Tests used:
[1] = test system: Desulfovibrio vulgaris (ATCC#29579); experiment: In vitro photodynamic disinfection of planktonic bacteria, aerobic and anaerobic (Example IX); format: cell-based
Description: An in vitro photodynamic disinfection model was used to evaluate antibacterial efficacy against a strain of bacteria commonly found in biofilms growing on the inner surface of industrial oil and gas pipelines. […] This organism is a facultative anaerobe, and typically grows in nature in environments that contain little or no oxygen. Thus, prior to the experiments the bacteria was grown on pre-reduced solid media (brucella blood agar enriched with haemin and vitamin K) at 37° C. under anaerobic conditions. The exposures to photodynamic disinfection were run in both anaerobic and aerobic conditions in order to determine the importance of local oxygen during the photoreaction. […] In addition, several experimental conditions were run in the presence of L-tryptophan, which is a known scavenger of singlet oxygen and other oxygen derived free radicals. The addition of L-tryptophan was designed to test whether the antimicrobial killing effect of photodynamic disinfection was in fact dependent on the generation of reactive forms of oxygen. […] In addition, controls consisting of exposure to either photosensitizer or illumination alone were run to ensure that neither of these variables contributed to bacterial killing on their own. For these photodynamic disinfection experiments, log phase planktonic bacterial inoculum was prepared to a concentration of 10^7 colony-forming units per milliliter (CFU/ml) in a buffered saline solution. […] After illumination, samples were serially diluted and plated on tryptic soy agar for 48 hours at 37° C. Raw surviving colony counts for each experimental condition were averaged and back-calculated given dilution factor to give data in CFU/ml. The data was presented as CFU/ml of surviving organisms after treatment, and kill rate was calculated as this value in experimental samples vs. control (no light, no photosensitizer) and expressed as both a log and percentage reduction in viability. The entire experimental protocol was performed in the dark, and all samples were exposed and plated one at a time to limit ambient light exposure and to maintain the exposure time of bacteria to test solution uniform across all replicates. All experimental and control conditions were run in triplicate for each individual experiment, and experiments were performed on three separate occasions to verify reproducibility.

[2] = test system: D. vulgaris (ATCC#29579) biofilms; experiment: Photodynamic disinfection of peg biofilms, 670 nm laser, anaerobic (Example X); format: cell-based, Desulfovibrio vulgaris; conditions: control: methylene blue formulation alone, no laser light
[3] = test system: D. desulfuricans (ATCC#14563) biofilms; experiment: as above; format: cell-based, Desulfovibrio desulfuricans; conditions: control: methylene blue formulation alone, no laser light
D. vulgaris biofilms = experiment: Photodynamic disinfection of well-plate biofilms, broadband light, anaerobic (Example XI); format: cell-based, Desulfovibrio vulgaris; conditions: 0.1% w/v, 30 seconds, then 60 seconds broadband illumination (150 watt haloid lamp)
Description: (§1) In this study, biofilms of sulfate reducing bacteria were treated with photodynamic disinfection as in Example X above. In these experiments, however, illumination of the biofilms was performed using a broadband (wide wavelength) light source instead of a laser. […] For the broadband light photodynamic disinfection exposures, biofilms of D. vulgaris and D. sulfuricans were grown on the inner surface of flat-bottomed 96-well plates. In brief, 50 μl of liquid inoculum in log growth phase was added to each well, and plates were then incubated (37° C.) on an […] shaker at 125 rpm for 48 hours in order to allow biofilm growth. […] After this growth period, plates were removed from the shaker into an anaerobic cabinet, where all photodynamic disinfection treatments were performed. […] Raw surviving colony counts for each experimental condition were averaged and back-calculated given dilution factor to give data in CFU/ml. The data was presented as CFU/ml of surviving organisms after treatment, and kill rate was calculated as this value in experimental samples vs. control (no light, no photosensitizer) and expressed as both a log and percentage reduction in viability. […]

[4] = test system: D. desulfuricans biofilms; experiment: as above; format: cell-based, Desulfovibrio desulfuricans; conditions: 0.1%, then 60 second broadband illumination
Description: as §1

[5] = test system: D. vulgaris (ATCC#29579) biofilms; experiment: Treatment of peg biofilms with chemical disinfectant, anaerobic (Example X); format: cell-based, Desulfovibrio vulgaris
Description: (§2) Homogenous biofilms of the sulfate reducing organisms D. vulgaris (ATCC#29579) and D. desulfuricans (ATCC#14563) were grown on hard plastic pegs using a previously published protocol and system (Innovotech, Calgary, Canada). Briefly, bacterial suspensions of D. vulgaris and D. desulfuricans consisting of 10^8 CFU/ml were prepared in modified Barrs medium for sulfate reducers (ATCC), then diluted 1:40. 200 μl of this inoculum was added to each well of a 96-well plate. 96-peg lids were then placed into the wells and the assembly was incubated at 37° C. on an Excella E2 gyrorotary shaker (Fisher Scientific) at 125 rpm for 24 hours. For both biofilm protocols, all inoculum and plates were prepared and incubated anaerobically. During the incubation period, the visible formation of an insoluble black residue in each well indicated bacterial metabolism, and after incubation a visible biofilm was evident on each pegs.
(§3) For treatment of biofilms with benzalkonium chloride (BAC), biofilms grown on pegs as described above were used. 96-peg lids were removed from the bacterial inoculum after 24 hours of incubation, and rinsed twice to remove any free-floating organisms by placing the peg lid in 96-well plates containing 300 μl of sterile water. Pegs were then placed in aqueous solutions containing either 0% (water only control), 0.01%, 0.1%, or 1% BAC for 30 seconds. After this exposure pegs were immediately placed in recovery media and processed/plated as described above for enumeration of surviving organisms. All BAC exposure conditions were run in triplicate in anaerobic conditions for each organism.

[6] = test system: D. desulfuricans (ATCC#14563) biofilms; experiment: as above; format: cell-based, Desulfovibrio desulfuricans
Description: as §2, §3

[7] = aerobic, 0.01% w/v aqueous methylene blue, 670 nm diode laser 20.6 J/cm2 (60 seconds), planktonic
[8] = anaerobic, 0.01% w/v aqueous methylene blue, 670 nm laser 20.6 J/cm2, planktonic
[9] = 30 second exposure to 0.01% aqueous solution
[10] = 30 second exposure to 0.1% aqueous solution
[11] = 30 second exposure to 1% aqueous solution

| Compound | killing [1, 7] | log10 reduction in viability vs. non-treated controls [1, 7] | log10 reduction in viability vs. non-treated controls ([1]; aerobic, 0.01% w/v methylene blue with 20 mM L-tryptophan, 670 nm laser 20.6 J/cm2, planktonic) | killing [1, 8] | log10 reduction vs. non-treated control [1, 8] | log10 reduction from non-treated control ([1]; anaerobic, 0.01% w/v methylene blue with 20 mM L-tryptophan, 670 nm laser 20.6 J/cm2, planktonic) | antibacterial action ([1]; control: photosensitizer composition alone, no illumination) | reduction in biofilm viability [2] | reduction in biofilm viability [3] | decrease in viability compared to non-treated control (D. vulgaris biofilms) | inhibition at 0.1 % strength (D. vulgaris biofilms; Nitratidesulfovibrio vulgaris, read-out: decrease in viability compared to non-treated control) | reduction in viability [4] | reduction in viability vs. non-treated control [5, 9] | reduction in viability vs. non-treated control [5, 10] | reduction in viability vs. non-treated control [5, 11] | reduction in viability vs. non-treated control [6, 9] | reduction in viability vs. non-treated control [6, 10] | reduction in viability vs. non-treated control [6, 11] |
| --- | --- | --- | --- | --- | --- | --- | --- | --- | --- | --- | --- | --- | --- | --- | --- | --- | --- | --- |
| CN(C)c1ccc2nc3ccc(=[N+](C)C)cc-3sc2c1 [methylene blue] | > 99.99% | 4.4±2.3 log10 | 1.7±0.6 log10 | > 99.9% | 3.5±0.8 log10 | 2.5±2.1 log10 | No significant antibacterial action | Neither the methylene blue formulation nor the laser light alone led to any significant reduction | Neither the methylene blue formulation nor the laser light alone led to any significant reduction | 1.5 log10 | ~95% | did not result in a significant reduction in viability | – | – | – | – | – | – |
| benzalkonium chloride [BAC] | – | – | – | – | – | – | – | – | – | – | – | – | 0.5 log10 | 1.4 log10 | 1.5 log10 | 0.6 log10 | 2.7 log10 | 1.9 log10 |
